Source: patent US20060140888A1, “Whitening agent containing crystalline molecular complex of hydroquinone and surfactant” (priority 2002, published 2006)
Read-outs that look alike come from different tables or passages of the source.

Columns and labels:
[1] = Storage stability (outer appearance change) of ointments containing molecular complex crystals; type: physicochemical; settings: hydrophilic ointment containing 5%, 2 weeks in air at room temperature
From the text: Storage Sstability (Outer Appearance Change) of Ointments Prepared by Combining Different Surfactant/Hydroquinone Molecular Complex Crystals with Ointment Bases (Simple Ointment, Hydrophilic Ointment)

[2] = cited from earlier work
back of a person = experiment: Visual observation test for skin reaction (patch test); type: in vivo, human; settings: for skin reaction (visual): patch test, kneaded with white vaseline
Description: A simple surfactant and surfactant/hydroquinone molecular complex crystals were kneaded with white vaseline, and used for a patch test with a patch tester (Torii Yakuhin) on the back of a person. Skin reactions such as eruption, redness, edema or papules were visually noted 48 hours after applying each patch. Skin reactions were also confirmed after 72 hours. The samples used for the patch test were as follows (where the percentage values indicate the proportions of the surfactant or molecular complex crystals).

outer appearance (coloration) of hydrophilic ointment [1] | overall evaluation of patch test (back of a person; after 48 hours) | overall evaluation of patch test (back of a person; after 72 hours) | skin reaction (visual) (back of a person; after 72 hours) | SMILES | solubility ([2]; in benzene) | solubility ([2]; in ether) | solubility ([2]; in ethyl acetate) | solubility ([2]; in methanol) | solubility ([2]; in water) | skin reaction (visual) (back of a person; after 48 hours)
Brown spots were confirmed |  |  |  | Oc1ccc(O)cc1 [simple hydroquinone, 1,4-benzenediol] | poorly soluble | readily soluble | poorly soluble | readily soluble | soluble | 
 | negative | negative | Some redness remained in the center area | CCCCCCCCCCCCCCCC[N+](C)(C)Cc1ccccc1.[Cl-] [No. 7, hexadecyldimethylbenzylammonium chloride] |  |  |  |  |  | some redness was found at the center area
